Results as given in BindingDB's records for patent US9815850 (Denali Therapeutics Inc., 2017).

Target: T1, Receptor-interacting serine/threonine-protein kinase 1 (Homo sapiens, UniProt Q13546)
T1 sequence (Q13546 whole entry): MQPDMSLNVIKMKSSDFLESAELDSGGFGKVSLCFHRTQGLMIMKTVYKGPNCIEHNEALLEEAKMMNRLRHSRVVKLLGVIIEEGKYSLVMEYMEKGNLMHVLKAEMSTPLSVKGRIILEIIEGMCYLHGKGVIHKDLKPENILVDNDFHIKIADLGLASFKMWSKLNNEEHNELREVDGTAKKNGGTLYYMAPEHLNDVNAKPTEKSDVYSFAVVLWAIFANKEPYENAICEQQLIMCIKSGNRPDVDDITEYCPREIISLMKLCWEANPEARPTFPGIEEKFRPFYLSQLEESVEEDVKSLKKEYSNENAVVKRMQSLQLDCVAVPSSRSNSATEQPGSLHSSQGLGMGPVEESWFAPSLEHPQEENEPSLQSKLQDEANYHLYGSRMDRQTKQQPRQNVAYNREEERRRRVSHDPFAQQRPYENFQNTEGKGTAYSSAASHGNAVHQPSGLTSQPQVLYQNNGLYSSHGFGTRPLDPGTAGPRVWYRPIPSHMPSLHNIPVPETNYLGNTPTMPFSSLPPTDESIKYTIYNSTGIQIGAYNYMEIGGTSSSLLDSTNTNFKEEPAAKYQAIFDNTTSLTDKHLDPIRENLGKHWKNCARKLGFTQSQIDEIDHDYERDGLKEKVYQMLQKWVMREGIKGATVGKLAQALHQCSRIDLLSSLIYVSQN
Assay: Fluorescent Polarization Binding (FP Binding) assay
Description: For negative control the enzyme addition was replaced by assay buffer only.

Question: For `O=C(N[C@H]1COc2ccccc2-n2cnnc21)c1cc(Cc2ccccc2)[nH]n1` [US9815850, Compound 70A], which IC50 is on record?
Answer: The IC50 was “in the range around 500 nM”.
